Results from US20250090540A1, “PI3K-ALPHA INHIBITORS AND METHODS OF USE THEREOF” (Relay Therapeutics, Inc., priority 2021, published 2025).

target: H1047R PIK3CA enzyme (Homo sapiens, UniProt P42336, H1047R); test: ADP-Glo Biochemical PIK3CA Kinase Assay; conditions: not given
Protocol: Compounds to be assayed were plated in 16 doses of 1:2 serial dilutions (20 nL volume each well) on a 1536-well plate, and the plate warmed to room temperature. PIK3CA enzyme (e.g. H1047R, E542K, E545K, or wild-type) (1 μL of 2 nM solution in Enzyme Assay Buffer (comprising 50 mM HEPES pH 7.4, 50 mM NaCl, 6 mM MgCl2, 5 mM DTT and 0.03% CHAPS)) was added and shaken for 10 seconds and preincubated for 30 minutes. To the well was added 1 μL of 200 μM ATP and 20 μM of diC8-PIP2 in Substrate Assay Buffer (50 mM HEPES pH7.4, 50 mM NaCl, 5 mM DTT and 0.03% CHAPS) to start the reaction, and the plate was shaken for 10 seconds, then spun briefly at 1500 rpm, and then incubated for 60 minutes at room temperature. The reaction was stopped by adding 2 μL of ADP-Glo reagent (Promega), and spinning briefly at 1500 rpm, and then incubating for 40 minutes. ADP-Glo Detection reagent (Promega) was added and the plate spun briefly at 1500 rpm, then incubated for 30 minutes.

Sequence of H1047R PIK3CA enzyme (P42336 whole entry H1047R): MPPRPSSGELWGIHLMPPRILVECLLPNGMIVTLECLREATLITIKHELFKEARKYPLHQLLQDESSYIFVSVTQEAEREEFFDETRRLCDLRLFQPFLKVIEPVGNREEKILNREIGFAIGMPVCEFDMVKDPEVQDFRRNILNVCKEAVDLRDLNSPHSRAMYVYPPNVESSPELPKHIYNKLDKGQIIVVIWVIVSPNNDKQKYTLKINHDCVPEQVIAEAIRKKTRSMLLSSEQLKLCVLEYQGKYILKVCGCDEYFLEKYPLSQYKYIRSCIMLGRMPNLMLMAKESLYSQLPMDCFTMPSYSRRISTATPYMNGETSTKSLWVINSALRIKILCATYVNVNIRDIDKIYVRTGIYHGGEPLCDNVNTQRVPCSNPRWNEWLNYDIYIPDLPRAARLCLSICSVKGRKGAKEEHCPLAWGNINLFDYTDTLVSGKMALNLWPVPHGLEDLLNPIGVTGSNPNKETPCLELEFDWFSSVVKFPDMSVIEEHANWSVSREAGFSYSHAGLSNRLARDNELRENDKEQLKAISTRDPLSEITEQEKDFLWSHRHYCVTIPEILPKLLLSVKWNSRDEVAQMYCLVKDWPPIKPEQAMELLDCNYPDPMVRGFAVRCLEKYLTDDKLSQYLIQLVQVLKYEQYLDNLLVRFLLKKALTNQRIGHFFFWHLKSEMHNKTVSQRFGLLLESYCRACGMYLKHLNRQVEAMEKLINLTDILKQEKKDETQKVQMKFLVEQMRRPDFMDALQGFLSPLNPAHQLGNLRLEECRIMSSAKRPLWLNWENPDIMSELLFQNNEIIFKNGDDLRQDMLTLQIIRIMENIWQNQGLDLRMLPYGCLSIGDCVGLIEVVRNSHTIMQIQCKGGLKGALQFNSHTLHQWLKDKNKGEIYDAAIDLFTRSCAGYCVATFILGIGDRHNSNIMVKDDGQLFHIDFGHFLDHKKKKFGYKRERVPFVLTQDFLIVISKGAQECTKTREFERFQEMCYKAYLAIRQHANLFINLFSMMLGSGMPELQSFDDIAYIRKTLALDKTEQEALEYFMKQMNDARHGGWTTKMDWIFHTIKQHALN
Sequence of H1047R PIK3CA enzyme (P27986 whole entry partner): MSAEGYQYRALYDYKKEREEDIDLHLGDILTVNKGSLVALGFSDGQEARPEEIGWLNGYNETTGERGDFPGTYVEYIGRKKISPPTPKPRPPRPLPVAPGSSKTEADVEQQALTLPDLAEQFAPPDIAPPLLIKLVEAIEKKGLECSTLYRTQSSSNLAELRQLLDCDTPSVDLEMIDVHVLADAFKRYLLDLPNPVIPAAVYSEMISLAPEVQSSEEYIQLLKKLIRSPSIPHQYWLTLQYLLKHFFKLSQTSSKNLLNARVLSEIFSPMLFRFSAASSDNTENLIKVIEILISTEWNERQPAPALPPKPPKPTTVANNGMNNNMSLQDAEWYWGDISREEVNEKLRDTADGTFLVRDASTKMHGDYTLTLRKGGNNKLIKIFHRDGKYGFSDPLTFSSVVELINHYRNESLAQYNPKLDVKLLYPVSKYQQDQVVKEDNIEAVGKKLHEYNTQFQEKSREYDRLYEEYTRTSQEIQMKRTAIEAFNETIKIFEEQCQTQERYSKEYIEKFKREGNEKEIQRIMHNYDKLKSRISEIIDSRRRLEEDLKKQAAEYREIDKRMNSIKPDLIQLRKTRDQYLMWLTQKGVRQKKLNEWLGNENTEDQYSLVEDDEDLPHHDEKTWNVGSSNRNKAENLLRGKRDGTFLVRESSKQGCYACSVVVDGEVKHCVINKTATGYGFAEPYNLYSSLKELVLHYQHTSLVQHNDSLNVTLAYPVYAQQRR

Structure (SMILES) | IC50 [µM]
Cc1ccccc1N[C@H]1CCN(C(=O)OC(C)(C)C)C[C@H]1C(=O)Nc1cc(F)cc(C(F)(F)F)c1 (racemic) [I-68] | 10 to 100
Cc1ccccc1N[C@H]1CCN(C(=O)OC(C)(C)C)C[C@@H]1C(=O)Nc1cc(F)cc(C(F)(F)F)c1 (racemic) [I-156] | 10 to 100
CNC(=O)N1CC[C@H](Nc2ccccc2C)[C@H](C(=O)Nc2cc(F)cc(C(F)(F)F)c2)C1 (racemic) [I-203] | 10 to 100
Cc1ccccc1N[C@H]1CCN(C(=O)C2(O)CC2)C[C@H]1C(=O)Nc1cc(F)cc(C(F)(F)F)c1 (racemic) [I-227] | 10 to 100
Cc1ccccc1N[C@H]1CCN(C(=O)C2(O)CC2)C[C@@H]1C(=O)Nc1cc(F)cc(C(F)(F)F)c1 (racemic) [I-228] | 10 to 100
CNC(=O)N1CC[C@@H](Nc2ccccc2C)[C@H](C(=O)Nc2cc(F)cc(C(F)(F)F)c2)C1 (racemic) [I-229] | 10 to 100
Cc1ccccc1N[C@H]1CCN(C(=O)CC2CCOCC2)C[C@H]1C(=O)Nc1cc(F)cc(C(F)(F)F)c1 (racemic) [I-251] | 10 to 100
Cc1ccccc1N[C@H]1CCN(C2CCC2)C[C@H]1C(=O)Nc1cc(F)cc(C(F)(F)F)c1 (racemic) [I-252] | 10 to 100
CNC(=O)c1cnc(N2C[C@H]3C[C@H]3c3ccccc32)c(NC(=O)c2csc3ccccc23)c1 (racemic) [I-253] | 1 to 10
Cc1ccccc1N[C@H]1CCN(C(=O)CC2CCOCC2)C[C@@H]1C(=O)Nc1cc(F)cc(C(F)(F)F)c1 (racemic) [I-254] | 10 to 100
O=C(NC1CS(=O)(=O)C1)c1cnc(N2C[C@H]3C[C@H]3c3ccccc32)c(NC(=O)c2csc3ccccc23)c1 (racemic) [I-255] | 0.5 to 1
C[C@@H](NC(=O)c1cnc(N2CCCOc3ccccc32)c(NC(=O)c2csc3ccccc23)c1)c1cccnc1 (racemic) [I-278] | 1 to 10
CC1CN(c2ncc(C(=O)N[C@H](C)c3cccnc3)cc2NC(=O)c2csc3ccccc23)c2ccccc2O1 (mixture of isomers) [I-336] | 1 to 10
CN1CC[C@H](NC(=O)c2cnc(N3CCOc4ccccc43)c(NC(=O)c3csc4ccccc34)c2)C1 (racemic) [I-349] | 0.5 to 1
Cc1ccccc1[C@@H]1Nc2ccccc2[C@H]1CNC(=O)c1cc(F)cc(C(F)(F)F)c1 (racemic) [I-808, 3-fluoro-N-(((2R,3S)-2-(o-tolyl)indolin-3-yl)methyl)-5-(trifluoromethyl)benzamide] | 10 to 100
CNC(=O)c1cnc(N[C@@H]2CCCC[C@@H]2CO)c(NC(=O)c2cc(F)cc(C(F)(F)F)c2)c1 (racemic) [I-812] | 10 to 100
O=C(Nc1cc(-c2ccc3ncnn3c2)cnc1N[C@H]1CCCC[C@H]1CO)c1cc(F)cc(C(F)(F)F)c1 (racemic) [I-817] | 10 to 100
O=C1C[C@H](CCO)[C@@H](CNC(=O)c2cc(F)cc(C(F)(F)F)c2)[C@H](c2cc(F)ccc2Cl)N1 (racemic) [I-821] | 10 to 100
O=C(N[C@@H]1CCC[C@H](O)[C@H]1c1cc(F)ccc1Cl)c1cc(F)cc(C(F)(F)F)c1 (racemic) [I-823, N-[(1R,2S,3S)-2-(2-chloro-5-fluorophenyl)-3-hydroxycyclohexyl]-3-fluoro-5-(trifluoromethyl)benzamide] | 10 to 100
CNC(=O)CN1CC(=O)N[C@H](c2cc(F)ccc2Cl)[C@H]1C(=O)NC1CCCC(C(F)(F)F)C1 (mixture of isomers) [I-825, trans-3-(2-chloro-5-fluorophenyl)-1-[(methylcarbamoyl)methyl]-5-oxo-N-[3-(trifluoromethyl)cyclohexyl]piperazine-2-carboxamide] | 10 to 100
Cc1ccccc1Nc1ncc(C(=O)N[C@@H]2CCN(C)C2)cc1NC(=O)c1cc(F)cc(C(F)(F)F)c1 (stereo in doubt) [I-64] | 1 to 10

Structure (SMILES) | IC50 [µM]
CNC(=O)c1cnc(Nc2ccccc2C)c(NC(=O)[C@H](N)C2CCCCC2)c1 (stereo in doubt) [I-142] | 10 to 100
CNC(=O)c1cnc(Nc2ccccc2C)c(NC(=O)[C@@H](N)C2CCCCC2)c1 (stereo in doubt) [I-159] | 10 to 100
CNC(=O)c1cnc(Nc2ccccc2C)c(NC(=O)c2cc(F)cc(Br)c2)c1 [I-2] | 0.5 to 1
COC(=O)c1cnc(Nc2ccccc2C)c(NC(=O)c2cc(F)cc(C(F)(F)F)c2)c1 [I-3] | 1 to 10
CNC(=O)c1cnc(Nc2ccccc2C)c(NC(=O)c2cc3c(F)cc(F)cc3[nH]2)c1 [I-5] | 10 to 100
Cc1ccccc1Nc1ncc(-c2cnn(C)c2)cc1NC(=O)c1cc(F)cc(C(F)(F)F)c1 [I-9] | 10 to 100
CNC(=O)c1cnc(Nc2ccccc2C)c(N(S(=O)(=O)c2ccc(F)cc2C)S(=O)(=O)c2ccc(F)cc2C)c1 [I-10] | 10 to 100
CNC(=O)c1cnc(Nc2ccccc2C)c(NC(=O)c2cc(Cl)ccc2OC)c1 [I-12] | 10 to 100
CNC(=O)c1cnc(Nc2ccccc2C)c(N(S(=O)(=O)c2ccccc2)S(=O)(=O)c2ccccc2)c1 [I-13] | 10 to 100
CNC(=O)c1cnc(Nc2ccccc2C)c(NC(=O)Cc2ccc(OCc3ccccc3)c(OCc3ccccc3)c2)c1 [I-14] | 10 to 100
Cc1ccccc1Nc1ncc(C(=O)N2CCCC2)cc1NC(=O)c1cc(F)cc(C(F)(F)F)c1 [I-15] | 10 to 100
Cc1ccccc1Nc1ncc(C2=CCNCC2)cc1NC(=O)c1cc(F)cc(C(F)(F)F)c1 [I-16] | 10 to 100
Cc1ccccc1Nc1ncc(C(=O)O)cc1NC(=O)c1cc(F)cc(C(F)(F)F)c1 [I-17] | 1 to 10
CNC(=O)c1cnc(Nc2ccccc2C)c(NC(=O)c2oc(C)nc2C)c1 [I-18] | 1 to 10
Cc1cnc(Nc2ccccc2C)c(NC(=O)c2cc(F)cc(C(F)(F)F)c2)c1 [I-19] | 10 to 100
CNC(=O)c1cnc(Nc2ccccc2C)c(NS(=O)(=O)c2ccccc2)c1 [I-20] | 1 to 10
Cc1ccccc1Nc1ncc(C(=O)N2CCOCC2)cc1NC(=O)c1cc(F)cc(C(F)(F)F)c1 [I-22] | 10 to 100
CNC(=O)c1cnc(Nc2ccccc2C)c(NCc2ccccc2)c1 [I-23] | 10 to 100
CNC(=O)c1cnc(Nc2ccccc2)c([N+](=O)[O-])c1 [I-24] | 10 to 100
CNC(=O)c1cnc(Nc2cccc(F)c2)c([N+](=O)[O-])c1 [I-25] | 10 to 100
CNC(=O)c1cnc(Nc2ccccc2C)c(NC(=O)Cc2c(C)nc(N)[nH]c2=O)c1 [I-26] | 10 to 100

Structure (SMILES) | IC50 [µM]
CNC(=O)c1cnc(Nc2cccc(F)c2)c(NC(=O)c2cc(F)cc(C(F)(F)F)c2)c1 [I-29] | 10 to 100
CNC(=O)c1cnc(Nc2ccccc2)c(N)c1 [I-31] | 10 to 100
CNC(=O)c1cnc(Nc2cccc(F)c2)c(N)c1 [I-32] | 10 to 100
CNC(=O)c1cnc(Nc2ccccc2)c(NC(=O)c2cc(F)cc(C(F)(F)F)c2)c1 [I-33] | 10 to 100
CNC(=O)c1cnc(Nc2ccccc2C)c(NCC2CC2)c1 [I-34] | 10 to 100
CNC(=O)c1cnc(Nc2ccccc2C)c(NC(=O)Cc2cccc(Cl)c2)c1 [I-35] | 10 to 100
CNC(=O)c1cnc(N2CCc3ccccc32)c(NC(=O)c2cc(F)cc(C(F)(F)F)c2)c1 [I-37] | 10 to 100
CNC(=O)c1cnc(Nc2ccccc2C#N)c(NC(=O)c2cc(F)cc(C(F)(F)F)c2)c1 [I-38] | 10 to 100
CNC(=O)c1cnc(Nc2cccc(C)c2)c(NC(=O)c2cc(F)cc(C(F)(F)F)c2)c1 [I-39] | 1 to 10
CNC(=O)c1cnc(Nc2ccccc2C)c(NC(=O)c2cc3ccccc3o2)c1 [I-40] | 10 to 100
CNC(=O)c1cnc(Nc2ccccc2C)c(NC(=O)c2ccccc2)c1 [I-43] | 10 to 100
CNC(=O)c1cnc(Nc2ccccc2C)c(NC(=O)c2coc3ccccc23)c1 [I-44] | 1 to 10
CNC(=O)c1cnc(Nc2ccccc2S(C)(=O)=O)c(NC(=O)c2cc(F)cc(C(F)(F)F)c2)c1 [I-47] | 10 to 100
CNC(=O)c1cnc(Nc2ccccc2C)c(NC(=O)c2ncn3ccccc23)c1 [I-48] | 10 to 100
Cc1ccccc1Nc1ncc(C#N)cc1NC(=O)c1cc(F)cc(C(F)(F)F)c1 [I-49] | 1 to 10
CNC(=O)c1cnc(Nc2ccccc2C)c(NS(=O)(=O)c2cn(C)nc2C)c1 [I-55] | 10 to 100
CNc1ncc(Br)cc1NC(=O)c1cc(F)cc(C(F)(F)F)c1 [I-58] | 10 to 100
Cc1ccc(NC(=O)c2cc(F)cc(C(F)(F)F)c2)c(Nc2ccccc2C)n1 [I-59] | 1 to 10
Cc1ccccc1Nc1ncc(-c2cnn(C)c2)cc1Nc1ncnn2cccc12 [I-61] | 10 to 100
Cc1ccccc1Nc1ncc(NS(C)(=O)=O)cc1NC(=O)c1cc(F)cc(C(F)(F)F)c1 [I-62] | 1 to 10

same assay, conditions: ADP-Glo biochemical PIK3CA kinase assay

Structure (SMILES) | IC50 [µM]
CNC(=O)c1cnc(N[C@@H]2CCOC2)c(NC(=O)c2cc(F)cc(C(F)(F)F)c2)c1 (racemic) [I-554] | 1 to 10
CCOC(=O)[C@H]1CC[C@@H](NC(=O)c2cnc(Nc3ccccc3C)c(NC(=O)c3csc4ccccc34)c2)C1 (racemic) [I-653] | 0.5 to 1
CCOC(=O)[C@@H]1CC[C@@H](NC(=O)c2cnc(Nc3ccccc3C)c(NC(=O)c3csc4ccccc34)c2)C1 (racemic) [I-654] | 1 to 10
Cc1ccccc1[C@H]1NC(=O)C[C@@H]1C(=O)Nc1cc(F)cc(C(F)(F)F)c1 (racemic) [I-669] | 1 to 10
O=C(N[C@H]1CCC[C@H]1N1CCOc2ccccc21)c1cc(F)cc(C(F)(F)F)c1 (racemic) [I-796] | 0.5 to 1
CNC(=O)c1cnc(N2CCC[C@@H]3CCC[C@@H]32)c(NC(=O)c2csc3ccccc23)c1 (single isomer, unassigned) [I-633] | 1 to 10
Cc1ccccc1Nc1ncc(C(=O)N[C@@H]2CC[C@@H](C(=O)O)C2)cc1NC(=O)c1csc2ccccc12 (single isomer, unassigned) [I-661] | 1 to 10
